Measured values reported in ChEMBL document CHEMBL5465560, “Selectivity Literature for EUbOPEN Chemogenomic Library” (2024).
Values belong to the molecule of their own block, whether it stands above or below them.

What was measured:
[1] = target: Serine/threonine-protein kinase 10 (Homo sapiens) (UniProt O94804); assay: Selectivity interaction (ActivX KiNativ screen (kinase selectivity in THP-1 cell lysates)) EUB0000639a STK10; format: subcellular; settings: lysate, at 1 µM
[2] = target: Tyrosine-protein kinase SYK (Homo sapiens, UniProt P43405); assay: Selectivity interaction (ActivX KiNativ screen (kinase selectivity in THP-1 cell lysates)) EUB0000639a SYK; format: subcellular; settings: lysate
[3] = target: RAC-beta serine/threonine-protein kinase (Homo sapiens) (UniProt P31751); assay: Selectivity interaction (Kinase panel (literature)) EUB0001199aCl AKT2; settings: at 1 µM
[4] = target: T1, Serine/threonine-protein kinase STK11 (Homo sapiens) (UniProt Q15831); assay: Selectivity interaction (KinomeScan (DiscoverX)) EUB0000229b STK11; settings: at 10 µM
T1 sequence (whole entry): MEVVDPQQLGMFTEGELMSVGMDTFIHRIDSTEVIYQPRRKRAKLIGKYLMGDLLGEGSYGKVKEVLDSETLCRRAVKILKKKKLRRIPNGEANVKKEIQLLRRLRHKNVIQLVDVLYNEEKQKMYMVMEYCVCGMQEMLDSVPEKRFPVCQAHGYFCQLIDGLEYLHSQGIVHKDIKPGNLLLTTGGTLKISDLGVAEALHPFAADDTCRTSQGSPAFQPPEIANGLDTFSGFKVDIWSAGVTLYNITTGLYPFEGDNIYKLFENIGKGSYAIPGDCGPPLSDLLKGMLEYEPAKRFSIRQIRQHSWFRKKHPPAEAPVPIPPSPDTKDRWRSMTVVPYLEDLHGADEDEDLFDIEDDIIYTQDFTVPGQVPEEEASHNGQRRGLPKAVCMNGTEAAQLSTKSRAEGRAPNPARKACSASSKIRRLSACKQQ

[5] = target: T2, Serine/threonine-protein kinase Nek1 (Homo sapiens) (UniProt Q96PY6); assay: Selectivity interaction (Kinase panel (Eurofins)) EUB0001564a NEK1; settings: at 1 µM
T2 sequence (whole entry): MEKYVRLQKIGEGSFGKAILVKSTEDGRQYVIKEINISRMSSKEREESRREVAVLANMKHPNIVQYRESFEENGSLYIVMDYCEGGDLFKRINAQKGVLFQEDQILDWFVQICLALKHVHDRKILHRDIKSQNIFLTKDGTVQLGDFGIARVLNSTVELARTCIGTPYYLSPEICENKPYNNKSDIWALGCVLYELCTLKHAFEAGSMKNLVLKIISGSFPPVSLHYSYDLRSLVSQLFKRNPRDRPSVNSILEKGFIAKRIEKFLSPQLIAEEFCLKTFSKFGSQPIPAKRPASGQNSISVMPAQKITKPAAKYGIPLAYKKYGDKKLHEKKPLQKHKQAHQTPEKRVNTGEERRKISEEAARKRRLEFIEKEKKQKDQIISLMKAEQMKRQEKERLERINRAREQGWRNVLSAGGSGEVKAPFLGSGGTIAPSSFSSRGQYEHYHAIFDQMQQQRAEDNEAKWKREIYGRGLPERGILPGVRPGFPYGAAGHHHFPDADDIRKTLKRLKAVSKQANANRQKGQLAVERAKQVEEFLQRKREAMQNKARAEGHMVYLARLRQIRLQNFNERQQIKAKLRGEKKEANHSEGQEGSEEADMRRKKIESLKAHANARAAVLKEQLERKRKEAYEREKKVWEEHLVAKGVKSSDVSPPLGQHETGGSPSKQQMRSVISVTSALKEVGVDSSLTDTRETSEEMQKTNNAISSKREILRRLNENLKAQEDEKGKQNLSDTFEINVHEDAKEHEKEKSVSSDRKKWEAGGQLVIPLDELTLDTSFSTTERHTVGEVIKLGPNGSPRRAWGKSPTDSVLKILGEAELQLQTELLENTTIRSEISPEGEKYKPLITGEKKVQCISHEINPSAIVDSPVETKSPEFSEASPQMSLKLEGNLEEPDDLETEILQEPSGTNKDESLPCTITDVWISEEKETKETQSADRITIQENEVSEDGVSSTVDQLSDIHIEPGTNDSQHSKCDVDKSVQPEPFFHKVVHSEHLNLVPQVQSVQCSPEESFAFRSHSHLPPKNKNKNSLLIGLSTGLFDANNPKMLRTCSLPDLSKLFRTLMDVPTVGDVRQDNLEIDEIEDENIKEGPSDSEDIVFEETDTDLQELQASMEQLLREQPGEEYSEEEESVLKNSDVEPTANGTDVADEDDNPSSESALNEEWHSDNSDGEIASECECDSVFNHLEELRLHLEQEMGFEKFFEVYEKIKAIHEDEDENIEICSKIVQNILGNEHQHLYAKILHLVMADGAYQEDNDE

[6] = target: Dual specificity protein kinase CLK3 (Homo sapiens, UniProt P49761); assay: Selectivity interaction (KinomeScan (DiscoverX)) EUB0000618a CLK3; settings: at 10 µM
[7] = target: Sodium-dependent serotonin transporter (Homo sapiens, UniProt P31645); assay: Selectivity interaction (Panel of kinases, GPCRs, ion channels and transporters (enzymatic assay)) EUB0000223bCl SLC6A4
Chain of Sodium-dependent serotonin transporter (P31645 whole entry, looked up): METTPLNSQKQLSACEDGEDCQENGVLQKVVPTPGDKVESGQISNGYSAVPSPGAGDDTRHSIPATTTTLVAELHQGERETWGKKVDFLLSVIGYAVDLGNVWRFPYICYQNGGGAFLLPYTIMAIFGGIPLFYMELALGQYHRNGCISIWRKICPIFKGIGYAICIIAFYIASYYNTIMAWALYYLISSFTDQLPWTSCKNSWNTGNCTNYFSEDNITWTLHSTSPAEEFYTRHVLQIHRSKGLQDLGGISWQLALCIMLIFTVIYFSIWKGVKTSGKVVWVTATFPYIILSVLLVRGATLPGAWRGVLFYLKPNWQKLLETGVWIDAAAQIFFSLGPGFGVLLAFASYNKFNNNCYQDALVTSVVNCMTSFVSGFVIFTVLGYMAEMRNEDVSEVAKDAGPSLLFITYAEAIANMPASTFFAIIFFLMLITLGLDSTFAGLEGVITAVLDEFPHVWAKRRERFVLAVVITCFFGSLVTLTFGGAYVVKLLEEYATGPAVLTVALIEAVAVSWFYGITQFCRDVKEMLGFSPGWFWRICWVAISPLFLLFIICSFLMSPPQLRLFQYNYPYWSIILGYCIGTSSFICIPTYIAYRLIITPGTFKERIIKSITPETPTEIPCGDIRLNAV

Chain of Serine/threonine-protein kinase 10 (Homo sapiens) (O94804 whole entry, looked up): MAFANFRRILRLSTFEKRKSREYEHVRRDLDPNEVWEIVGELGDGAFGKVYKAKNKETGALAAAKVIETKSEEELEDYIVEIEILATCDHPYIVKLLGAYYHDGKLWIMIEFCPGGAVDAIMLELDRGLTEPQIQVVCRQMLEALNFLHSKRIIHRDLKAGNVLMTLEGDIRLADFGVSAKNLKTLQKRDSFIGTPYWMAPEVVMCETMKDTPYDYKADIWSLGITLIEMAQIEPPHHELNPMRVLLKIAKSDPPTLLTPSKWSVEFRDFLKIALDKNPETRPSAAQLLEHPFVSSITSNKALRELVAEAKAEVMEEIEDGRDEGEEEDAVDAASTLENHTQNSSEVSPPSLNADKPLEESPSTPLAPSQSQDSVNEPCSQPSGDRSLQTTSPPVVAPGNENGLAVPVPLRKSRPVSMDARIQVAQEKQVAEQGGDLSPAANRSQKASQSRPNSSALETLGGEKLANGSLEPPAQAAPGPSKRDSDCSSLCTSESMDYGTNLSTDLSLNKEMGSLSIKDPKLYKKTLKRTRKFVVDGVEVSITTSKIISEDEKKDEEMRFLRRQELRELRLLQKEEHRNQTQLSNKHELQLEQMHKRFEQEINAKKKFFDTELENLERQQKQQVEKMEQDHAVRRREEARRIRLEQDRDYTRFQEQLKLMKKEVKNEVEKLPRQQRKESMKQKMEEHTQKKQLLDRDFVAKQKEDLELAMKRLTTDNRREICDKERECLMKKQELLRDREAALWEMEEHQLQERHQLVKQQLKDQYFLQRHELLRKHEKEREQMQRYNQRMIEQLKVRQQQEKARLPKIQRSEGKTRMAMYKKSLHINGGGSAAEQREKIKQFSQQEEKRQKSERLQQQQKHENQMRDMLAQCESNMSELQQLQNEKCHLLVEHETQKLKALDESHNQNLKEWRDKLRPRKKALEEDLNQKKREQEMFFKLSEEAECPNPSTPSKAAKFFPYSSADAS
Chain of Dual specificity protein kinase CLK3 (P49761 whole entry, looked up): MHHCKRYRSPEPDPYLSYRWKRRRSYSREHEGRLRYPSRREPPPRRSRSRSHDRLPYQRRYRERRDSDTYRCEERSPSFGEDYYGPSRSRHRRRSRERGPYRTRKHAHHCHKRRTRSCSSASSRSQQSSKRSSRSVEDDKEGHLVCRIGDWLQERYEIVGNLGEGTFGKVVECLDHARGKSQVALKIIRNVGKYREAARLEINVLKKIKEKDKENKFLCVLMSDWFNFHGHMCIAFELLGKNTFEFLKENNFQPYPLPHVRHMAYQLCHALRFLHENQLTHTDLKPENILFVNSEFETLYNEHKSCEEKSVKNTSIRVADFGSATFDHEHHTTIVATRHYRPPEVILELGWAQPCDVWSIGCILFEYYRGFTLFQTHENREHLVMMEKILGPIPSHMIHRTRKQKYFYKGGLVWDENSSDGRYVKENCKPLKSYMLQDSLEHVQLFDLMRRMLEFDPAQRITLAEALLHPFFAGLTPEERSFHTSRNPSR
Chain of RAC-beta serine/threonine-protein kinase (Homo sapiens) (P31751 whole entry): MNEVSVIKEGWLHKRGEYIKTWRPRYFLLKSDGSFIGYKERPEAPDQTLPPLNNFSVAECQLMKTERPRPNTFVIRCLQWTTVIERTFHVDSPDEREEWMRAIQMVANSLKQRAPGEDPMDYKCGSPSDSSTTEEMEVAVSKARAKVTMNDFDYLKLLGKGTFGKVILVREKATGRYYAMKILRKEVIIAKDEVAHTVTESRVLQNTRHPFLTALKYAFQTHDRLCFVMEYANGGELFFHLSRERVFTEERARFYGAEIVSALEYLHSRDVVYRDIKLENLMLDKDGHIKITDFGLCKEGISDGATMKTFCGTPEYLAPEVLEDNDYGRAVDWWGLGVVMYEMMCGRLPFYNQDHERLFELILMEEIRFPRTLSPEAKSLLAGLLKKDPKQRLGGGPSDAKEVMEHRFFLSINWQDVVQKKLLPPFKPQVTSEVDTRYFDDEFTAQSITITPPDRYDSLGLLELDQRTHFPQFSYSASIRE

% of inhibition [1]: -16.6%
% of inhibition ([2]; at 0.01 µM): 3.2%
% of inhibition ([2]; at 0.04 µM): 14.7%
% of inhibition ([2]; at 0.2 µM): 7.1%
% of inhibition ([2]; at 1 µM): 16.1%
% of inhibition ([2]; at 5 µM): 2.5%
SMILES: CC[C@@H]1[C@H](F)C(=O)N[C@@H]1COc1nccc2cc(C(N)=O)c(OC)cc12 [ZIMLOVISERTIB]

% of inhibition [3]: 7%
SMILES: CN1Cc2nccc(-c3cn(C)nc3-c3ccc(F)cc3)c2C1=O

% of inhibition [5]: 24.4%
SMILES: CC[C@@H](Nc1c(C#N)c(-c2ccc(-c3cccc(C)c3F)cc2)nc2cnccc12)C(=O)O [BAY-091]

Second part, the molecule before the results:

SMILES: COc1cc(N(C)c2ccnc3ccc(C(F)(F)F)cc23)cc(OC)c1OC
% binding [4]: 77%

SMILES: O[C@H]1CC[C@H](Nc2ncc3nc(Nc4c(F)cc(F)cc4F)n([C@H]4CCOC4)c3n2)CC1
% of control [6]: 93%

SMILES: COc1cc(C(=O)N2CC[C@@H](O)[C@@H](N)C2)cc2nc(-c3cc4ccccc4n3CC3CC3)n(C)c12
pXC50 [7]: 4.3 M
